Data as given in the supplement of paper PMC10307832.

Legend:
Assay in all cases: relative viability (nuclei count vs DMSO), 5 days (fraction); higher = more cells survive
XMD14-99 + Trametinib = compound: CN1CCN(CC1)C2=CC(=C(C=C2)NC3=NC(=C(S3)C(=O)C4=C(C=CC=C4Cl)Cl)N)OC [XMD14-99] + CC(=O)Nc1cccc(-n2c(=O)n(C3CC3)c(=O)c3c(Nc4ccc(I)cc4F)n(C)c(=O)c(C)c32)c1 [Trametinib] (partner 0.02 µM)
How it was run: (§1)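 Relative viability divides the nuclei count in treated wells by that in vehicle wells. Lung cancer cell lines were seeded in 1536-well plates, dosed by pin tool the next day, and fixed and stained after 5 days in one step with final 0.05% Triton X-100, 1% formaldehyde and 1 ug/ml Hoechst. Dosing was a single drug or a fixed anchor-drug dose plus five library-drug doses (not always all listed) in √10 steps, and values are medians of duplicate plates imaged at 4×.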

AZD1208 + Vorinostat = compound: N[C@@H]1CCCN(c2c(/C=C3\SC(=O)NC3=O)cccc2-c2ccccc2)C1 [AZD1208] + O=C(CCCCCCC(=O)Nc1ccccc1)NO [Vorinostat] (partner 1 µM)
How it was run: as §1

XMD14-99 + Phenformin = compound: CN1CCN(CC1)C2=CC(=C(C=C2)NC3=NC(=C(S3)C(=O)C4=C(C=CC=C4Cl)Cl)N)OC [XMD14-99] + N=C(N)NC(=N)NCCc1ccccc1 [Phenformin] (partner 250 µM)
How it was run: as §1

AZD1208 + Bortezomib = compound: N[C@@H]1CCCN(c2c(/C=C3\SC(=O)NC3=O)cccc2-c2ccccc2)C1 [AZD1208] + CC(C)C[C@H](NC(=O)[C@H](Cc1ccccc1)NC(=O)c1cnccn1)B(O)O [Bortezomib] (partner 0.002 µM)
How it was run: as §1

Cell Line	relative viability (XMD14-99 + Trametinib; first compound 0.08 µM)	relative viability (XMD14-99 + Trametinib; first compound 0.8 µM)	relative viability (XMD14-99 + Trametinib; first compound 2.53 µM)	relative viability (XMD14-99 + Trametinib; first compound 8 µM)	relative viability (AZD1208 + Vorinostat; first compound 0.08 µM)	relative viability (AZD1208 + Vorinostat; first compound 0.253 µM)	relative viability (AZD1208 + Vorinostat; first compound 0.8 µM)	relative viability (AZD1208 + Vorinostat; first compound 2.53 µM)	relative viability (AZD1208 + Vorinostat; first compound 8 µM)	relative viability (XMD14-99 + Phenformin; first compound 0.08 µM)	relative viability (XMD14-99 + Phenformin; first compound 0.8 µM)	relative viability (XMD14-99 + Phenformin; first compound 2.53 µM)	relative viability (XMD14-99 + Phenformin; first compound 8 µM)	relative viability (AZD1208 + Bortezomib; first compound 0.08 µM)	relative viability (AZD1208 + Bortezomib; first compound 0.253 µM)	relative viability (AZD1208 + Bortezomib; first compound 0.8 µM)	relative viability (AZD1208 + Bortezomib; first compound 2.53 µM)	relative viability (AZD1208 + Bortezomib; first compound 8 µM)
HCC-827	0.539	0.529	0.542	0.432	0.991	0.904	0.861	0.839	0.78	0.406	0.37	0.377	0.308	1.13	1.06	0.97	1.07	1.14
HOP-62	0.382	0.419	0.412	0.368	0.657	0.856	0.6	0.455	0.572	0.707	0.648	0.643	0.547	0.827	1.06	0.724	0.598	0.507
IA-LM					0.922	1.27	0.778	0.863	0.853					0.648	0.708	0.876	0.724	0.746
LC-2-ad	0.956	0.88	0.998	0.873	0.716	0.703	0.685	0.704	0.669	0.611	0.554	0.58	0.505	1.01	0.979	0.978	0.819	0.833
LCLC-97TM1	0.172	0.229	0.208	0.18	0.64	0.99	0.623	0.442	0.54	0.431	0.414	0.466	0.355	0.671	0.737	0.51	0.762	0.475
LCLC-103H	0.702	0.716	0.719	0.665	0.772	0.858	0.789	0.613	0.697	0.294	0.348	0.318	0.298	1.01	1.12	1.02	0.949	0.85
LK-2	0.571	0.738	0.706	0.646	0.329	0.322	0.255	0.302	0.247	0.363	0.368	0.423	0.215					
LOU-NH91	0.865	0.829	0.793	0.762	0.965	0.955	0.864	0.838	0.865	0.716	0.777	0.573	0.556	0.539	0.516	0.564	0.504	0.593
LU99A	0.559	0.61	0.512	0.394	0.471	0.618	0.481	0.467	0.332	0.888	0.917	0.728	0.603	1.07	1.2	1.27	1.12	0.904
NCI-H358	0.118	0.179	0.134	0.127	0.719	0.646	0.576	0.678	0.618	0.306	0.354	0.267	0.217					
NCI-H522	0.783	0.901	0.75	0.85	0.691	0.75	0.768	0.828	0.836	0.658	0.616	0.702	0.692					
NCI-H1299														1.06	1.07	0.994	0.986	1.02
NCI-H1395	0.992	1.05	0.958	1	0.974	0.731	0.632	0.698	0.546	0.471	0.458	0.404	0.438					
NCI-H1563										0.606	0.63	0.6	0.585	0.829	0.811	0.958	0.754	0.765
NCI-H1623										0.573	0.613	0.584	0.54					
NCI-H1648	0.613	0.46	0.459	0.466	0.371	0.491	0.298	0.36	0.89									
NCI-H1703														0.277	0.159	0.246	0.253	0.305
NCI-H1792	0.419	0.465	0.399	0.302						0.286	0.379	0.234	0.167	0.999	0.987	0.903	0.958	0.86
NCI-H1793	0.462	0.38	0.39	0.268	0.841	0.949	0.752	0.954	0.713	0.367	0.337	0.249	0.288					
NCI-H1944	0.446	0.374	0.381	0.338	0.596	0.665	0.618	0.468	0.379	0.194	0.203	0.173	0.157					
NCI-H2170	0.924	0.873	0.828	0.786	0.864	0.923	0.76	0.779	0.5	0.393	0.388	0.342	0.3					
NCI-H2342	0.885	0.882	0.949	0.848	0.831	0.702	0.604	0.799	0.597	0.675	0.782	0.68	0.513					
SK-MES-1	0.524	0.564	0.622	0.392	1.07	1.14	1.07	1.01	1.02	0.644	0.647	0.575	0.475					
SW 900	0.779	0.876	0.752	0.756	0.519	0.638	0.35	0.605	0.512	0.6	0.685	0.555	0.402					
